Experimental data reported in PMC9299836 (eLife, 2022).
Several values for one entry are separate records, joined by “and”; a condition that tells them apart may be missing. Equal entries are not always repeated.

Legend:
[1] = target: T1, mGluR2 (Mus musculus, UniProt Q14BI2, A548F); assay: Single-molecule FRET (SiMPull) of azi-CRD: population histograms and state occupancy; conditions: for smFRET Histogram, Mean: N 3; for Mean occupancy, state 1 (inactive, FRET 0.24) / Mean occupancy, state 2 (intermediate 1, FRET 0.38) / Mean occupancy, state 3 (intermediate 2, FRET 0.70) / Mean occupancy, state 4 (active, FRET 0.87): azi-CRD, 5 μM modulator, fraction of total area;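 on all read-outs here: Cy3/Cy5-labelled receptor from HEK293T cell lysate captured on anti-FLAG surfaces, apparent FRET efficiency computed from donor and acceptor intensities with crosstalk correction, pooled into population histograms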
[2] = target: T1, mGluR2; assay: Live-cell FRET, azi-CRD (cysteine-rich domain) sensor in HEK293T cells

T1 sequence (Q14BI2 19-872 A548F): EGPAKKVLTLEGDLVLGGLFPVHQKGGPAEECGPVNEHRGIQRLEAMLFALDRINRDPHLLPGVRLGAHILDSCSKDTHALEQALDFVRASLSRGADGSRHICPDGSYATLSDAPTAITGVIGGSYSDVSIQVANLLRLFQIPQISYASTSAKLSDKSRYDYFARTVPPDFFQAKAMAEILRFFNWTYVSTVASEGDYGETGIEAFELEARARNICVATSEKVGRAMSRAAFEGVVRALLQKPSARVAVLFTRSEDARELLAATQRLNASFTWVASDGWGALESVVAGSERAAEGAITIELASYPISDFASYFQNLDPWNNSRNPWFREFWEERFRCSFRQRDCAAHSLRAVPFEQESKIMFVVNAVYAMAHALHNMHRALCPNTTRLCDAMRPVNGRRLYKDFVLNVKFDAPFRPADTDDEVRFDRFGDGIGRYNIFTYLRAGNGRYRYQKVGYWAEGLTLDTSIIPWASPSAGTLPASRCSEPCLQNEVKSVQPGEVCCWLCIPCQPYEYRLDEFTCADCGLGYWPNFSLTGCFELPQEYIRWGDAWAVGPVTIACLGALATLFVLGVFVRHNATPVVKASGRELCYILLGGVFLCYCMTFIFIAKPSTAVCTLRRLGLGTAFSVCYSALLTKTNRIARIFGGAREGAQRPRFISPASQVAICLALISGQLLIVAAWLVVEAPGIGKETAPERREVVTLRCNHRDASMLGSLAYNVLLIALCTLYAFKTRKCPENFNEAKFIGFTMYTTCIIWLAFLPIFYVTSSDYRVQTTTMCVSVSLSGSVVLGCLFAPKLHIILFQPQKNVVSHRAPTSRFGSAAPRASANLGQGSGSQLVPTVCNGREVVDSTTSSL

## MNI-137
[1]; FRET 0.78, 0μM Glutamate + GPT/Pyruvate + 5μM MNI-137
  smFRET Histogram, Mean: 9.38E-04
[1]; FRET 0.78, 15μM Glutamate + 5μM MNI-137
  smFRET Histogram, Mean: 0.00583
[1]; FRET 0.8, 0μM Glutamate + GPT/Pyruvate + 5μM MNI-137
  smFRET Histogram, Mean: 8.49E-04
[1]; FRET 0.8, 15μM Glutamate + 5μM MNI-137
  smFRET Histogram, Mean: 0.00559
[1]; FRET 0.82, 0μM Glutamate + GPT/Pyruvate + 5μM MNI-137
  smFRET Histogram, Mean: 9.70E-04
[1]; FRET 0.82, 15μM Glutamate + 5μM MNI-137
  smFRET Histogram, Mean: 0.00496
[1]; FRET 0.84, 0μM Glutamate + GPT/Pyruvate + 5μM MNI-137
  smFRET Histogram, Mean: 0.00112
[1]; FRET 0.84, 15μM Glutamate + 5μM MNI-137
  smFRET Histogram, Mean: 0.00504
[1]; FRET 0.86, 0μM Glutamate + GPT/Pyruvate + 5μM MNI-137
  smFRET Histogram, Mean: 0.00114
[1]; FRET 0.86, 15μM Glutamate + 5μM MNI-137
  smFRET Histogram, Mean: 0.00467
[1]; FRET 0.88, 0μM Glutamate + GPT/Pyruvate + 5μM MNI-137
  smFRET Histogram, Mean: 0.0011
[1]; FRET 0.9, 0μM Glutamate + GPT/Pyruvate + 5μM MNI-137
  smFRET Histogram, Mean: 0.0013
[1]; FRET 0.9, 15μM Glutamate + 5μM MNI-137
  smFRET Histogram, Mean: 0.00455
[1]; FRET 0.92, 0μM Glutamate + GPT/Pyruvate + 5μM MNI-137
  smFRET Histogram, Mean: 0.0011
[1]; FRET 0.92, 15μM Glutamate + 5μM MNI-137
  smFRET Histogram, Mean: 0.00382
[1]; FRET 0.94, 0μM Glutamate + GPT/Pyruvate + 5μM MNI-137
  smFRET Histogram, Mean: 8.72E-04
[1]; FRET 0.96, 0μM Glutamate + GPT/Pyruvate + 5μM MNI-137
  smFRET Histogram, Mean: 0.001
[1]; FRET 0.98, 0μM Glutamate + GPT/Pyruvate + 5μM MNI-137
  smFRET Histogram, Mean: 6.96E-04
[1]; FRET 1, 0μM Glutamate + GPT/Pyruvate + 5μM MNI-137
  smFRET Histogram, Mean: 4.51E-04
[1]; FRET 1.02, 0μM Glutamate + GPT/Pyruvate + 5μM MNI-137
  smFRET Histogram, Mean: 2.62E-04
[1]; FRET 1.04, 0μM Glutamate + GPT/Pyruvate + 5μM MNI-137
  smFRET Histogram, Mean: 1.50E-04
[1]; FRET 1.06, 0μM Glutamate + GPT/Pyruvate + 5μM MNI-137
  smFRET Histogram, Mean: 2.86E-05
[1]; FRET 1.08, 0μM Glutamate + GPT/Pyruvate + 5μM MNI-137
  smFRET Histogram, Mean: 2.33E-05
[1]; FRET 1.1, 0μM Glutamate + GPT/Pyruvate + 5μM MNI-137
  smFRET Histogram, Mean: 8.10E-05
[1]; FRET 1.12, 0μM Glutamate + GPT/Pyruvate + 5μM MNI-137
  smFRET Histogram, Mean: 1.94E-05
[1]; FRET 1.14, 0μM Glutamate + GPT/Pyruvate + 5μM MNI-137
  smFRET Histogram, Mean: 1.94E-05
[1]; FRET 1.16, 0μM Glutamate + GPT/Pyruvate + 5μM MNI-137
  smFRET Histogram, Mean: 9.97E-06
[1]; FRET 1.18, 0μM Glutamate + GPT/Pyruvate + 5μM MNI-137
  smFRET Histogram, Mean: 0
[1]; FRET 1.2, 0μM Glutamate + GPT/Pyruvate + 5μM MNI-137
  smFRET Histogram, Mean: 0
[1]; 0 μM glutamate
  Mean occupancy, state 1 (inactive, FRET 0.24): 0.7486
  Mean occupancy, state 2 (intermediate 1, FRET 0.38): 0.222
  Mean occupancy, state 3 (intermediate 2, FRET 0.70): 0.02038
  Mean occupancy, state 4 (active, FRET 0.87): 0.00903
[1]; 15 μM glutamate
  Mean occupancy, state 1 (inactive, FRET 0.24): 0.1039
  Mean occupancy, state 2 (intermediate 1, FRET 0.38): 0.7494
  Mean occupancy, state 3 (intermediate 2, FRET 0.70): 0.1272
  Mean occupancy, state 4 (active, FRET 0.87): 0.01952
[1]; 1000 μM glutamate
  Mean occupancy, state 1 (inactive, FRET 0.24): 0.00207
  Mean occupancy, state 2 (intermediate 1, FRET 0.38): 0.5597
  Mean occupancy, state 3 (intermediate 2, FRET 0.70): 0.331
  Mean occupancy, state 4 (active, FRET 0.87): 0.1072
[2]; 10μM MNI-137, ([1 mM glutamate + modulator] - [1 mM glutamate]) × 100
  azi-CRD - ΔEfficacy, Mean ΔEfficacy: -14.0141
[2]; 10μM MNI-137, single cells
  azi-CRD - ΔEfficacy, individual cell responses: -19.4456 and -7.384 and -10.1516 and 1.621 and -9.317 and -10.1717 and -14.3919 and -15.5722 and -14.8125 and -10.0435 and -13.9489 and -17.5047 and -9.853 and -8.072 and -15.0625 and -34.4877 and -19.6812 and -23.9757
[2]; Glutamate + 10μM modulator (NAM), log[Glutamate] (M) -3, maximal response normalized to 1mM glutamate
  azi-CRD normalized FRET response, Mean: 0.8599
